# Data: PubChem BioAssay AID1963981 (Molecular Pharmacology Branch, DTP, NCI, 2024)
# Tested on: 354836-022-R-J1-PDC multicell spheroid viability
# Assay: Anticancer human tumor 354836-022-R-J1-PDC patient-derived head and neck squamous cell carcinoma cell line growth inhibition [PI3K]
# Conditions: for IC50: curve of first compound; for viability, T/C: stronger effect = lower value
# Summary of the method: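 High-throughput combination screen: PI3K inhibitors crossed with targeted small molecules on complex spheroids of tumor cells, HUVEC and MSCs at 37 degrees C, 5% CO2. Top concentration was at or near clinical Cmax (otherwise 10 microM), with half-log decrements.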
# [1] = second compound 0.0316 µM, first compound 0.0316 µM
# [2] = second compound 0.0316 µM, first compound 0.1 µM
# [3] = second compound 0.0316 µM, first compound 0.316 µM
# [4] = second compound 0.0316 µM, first compound 1 µM
# [5] = second compound 0.0316 µM, first compound 3.16 µM
# [6] = second compound 0.0316 µM, first compound 10 µM
# [7] = second compound 0.1 µM, first compound 0.0316 µM
# [8] = second compound 0.1 µM, first compound 0.1 µM
# [9] = second compound 0.1 µM, first compound 0.316 µM
# [10] = second compound 0.1 µM, first compound 1 µM
# [11] = second compound 0.1 µM, first compound 3.16 µM
# [12] = second compound 0.1 µM, first compound 10 µM
# [13] = second compound 0.316 µM, first compound 0.0316 µM
# [14] = second compound 0.316 µM, first compound 0.1 µM
# [15] = second compound 0.316 µM, first compound 0.316 µM
# [16] = second compound 0.316 µM, first compound 1 µM
# [17] = second compound 0.316 µM, first compound 3.16 µM
# [18] = second compound 0.316 µM, first compound 10 µM
# [19] = second compound 1 µM, first compound 0.0316 µM
# [20] = second compound 1 µM, first compound 0.1 µM
# [21] = second compound 1 µM, first compound 0.316 µM
# [22] = second compound 1 µM, first compound 1 µM
# [23] = second compound 1 µM, first compound 3.16 µM
# [24] = second compound 1 µM, first compound 10 µM
# [25] = second compound 0.00316 µM, first compound 0.0316 µM
# [26] = second compound 0.00316 µM, first compound 0.1 µM
# [27] = second compound 0.00316 µM, first compound 0.316 µM
# [28] = second compound 0.00316 µM, first compound 1 µM
# [29] = second compound 0.00316 µM, first compound 3.16 µM
# [30] = second compound 0.00316 µM, first compound 10 µM
# [31] = second compound 0.01 µM, first compound 0.0316 µM
# [32] = second compound 0.01 µM, first compound 0.1 µM
# [33] = second compound 0.01 µM, first compound 0.316 µM
# [34] = second compound 0.01 µM, first compound 1 µM
# [35] = second compound 0.01 µM, first compound 3.16 µM
# [36] = second compound 0.01 µM, first compound 10 µM
# 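Further: spheroids exposed to agents for seven days before the viability read.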
smiles,measurement,setting,value
CCCS(=O)(=O)Nc1ccc(F)c(C(=O)c2c[nH]c3ncc(-c4ccc(Cl)cc4)cc23)c1F + Cc1nc(NC(=O)N2CCCC2C(N)=O)sc1-c1ccnc(C(C)(C)C(F)(F)F)c1,IC50,second compound 0.0316 µM,6.08 µM
same,IC50,second compound 0.1 µM,5.56 µM
same,IC50,second compound 0.316 µM,5.31 µM
same,IC50,second compound 1 µM,4.97 µM
same,IC50,second compound 3.16 µM,3.43 µM
same,IC50,second compound 10 µM,< 0.0316 µM
same,"viability, T/C",[1],96.5%
same,"viability, T/C",[2],86.5%
same,"viability, T/C",[3],97.5%
same,"viability, T/C",[4],99.8%
same,"viability, T/C",[5],76.6%
same,"viability, T/C",[6],29.8%
same,"viability, T/C",[7],101%
same,"viability, T/C",[8],93.8%
same,"viability, T/C",[9],96.1%
same,"viability, T/C",[10],80.5%
same,"viability, T/C",[11],80.2%
same,"viability, T/C",[12],22.8%
same,"viability, T/C",[13],83.7%
same,"viability, T/C",[14],79.6%
same,"viability, T/C",[15],75.2%
same,"viability, T/C",[16],80%
same,"viability, T/C",[17],75.6%
same,"viability, T/C",[18],18.7%
same,"viability, T/C",[19],80.1%
same,"viability, T/C",[20],76.7%
same,"viability, T/C",[21],72%
same,"viability, T/C",[22],77%
same,"viability, T/C",[23],70.6%
same,"viability, T/C",[24],18%
same,"viability, T/C","second compound 3.16 µM, first compound 0.0316 µM",53.5%
same,"viability, T/C","second compound 3.16 µM, first compound 0.1 µM",60.8%
same,"viability, T/C","second compound 3.16 µM, first compound 0.316 µM",63.1%
same,"viability, T/C","second compound 3.16 µM, first compound 1 µM",66.8%
same,"viability, T/C","second compound 3.16 µM, first compound 3.16 µM",50.7%
same,"viability, T/C","second compound 3.16 µM, first compound 10 µM",11.5%
same,"viability, T/C","second compound 10 µM, first compound 0.0316 µM",39.6%
same,"viability, T/C","second compound 10 µM, first compound 0.1 µM",35.3%
same,"viability, T/C","second compound 10 µM, first compound 0.316 µM",35.6%
same,"viability, T/C","second compound 10 µM, first compound 1 µM",39.9%
same,"viability, T/C","second compound 10 µM, first compound 3.16 µM",32%
same,"viability, T/C","second compound 10 µM, first compound 10 µM",7.04%
CC1(C)CCC(CN2CCN(c3ccc(C(=O)NS(=O)(=O)c4ccc(NCC5CCOCC5)c([N+](=O)[O-])c4)c(Oc4cnc5[nH]ccc5c4)c3)CC2)=C(c2ccc(Cl)cc2)C1 + COc1c(OCCCN2CCOCC2)ccc2c3n(c(=NC(=O)c4cnc(N)nc4)nc12)CCN3,IC50,second compound 0.00316 µM,4.46 µM
same,IC50,second compound 0.01 µM,3.75 µM
same,IC50,second compound 0.0316 µM,3.73 µM
same,IC50,second compound 0.1 µM,1.75 µM
same,IC50,second compound 0.316 µM,< 0.0316 µM
same,IC50,second compound 1 µM,< 0.0316 µM
same,"viability, T/C",[25],85.4%
same,"viability, T/C",[26],97.5%
same,"viability, T/C",[27],97%
same,"viability, T/C",[28],96.5%
same,"viability, T/C",[29],69.2%
same,"viability, T/C",[30],5.16%
same,"viability, T/C",[31],92.6%
same,"viability, T/C",[32],87.3%
same,"viability, T/C",[33],95%
same,"viability, T/C",[34],95.5%
same,"viability, T/C",[35],58%
same,"viability, T/C",[36],4.01%
same,"viability, T/C",[1],69%
same,"viability, T/C",[2],76.2%
same,"viability, T/C",[3],78.8%
same,"viability, T/C",[4],79%
same,"viability, T/C",[5],58%
same,"viability, T/C",[6],3.73%
same,"viability, T/C",[7],58.9%
same,"viability, T/C",[8],50.6%
same,"viability, T/C",[9],49%
same,"viability, T/C",[10],61.7%
same,"viability, T/C",[11],44.6%
same,"viability, T/C",[12],2.56%
same,"viability, T/C",[13],12.8%
same,"viability, T/C",[14],12.5%
same,"viability, T/C",[15],13.7%
same,"viability, T/C",[16],14.3%
same,"viability, T/C",[17],7.93%
same,"viability, T/C",[18],1.71%
same,"viability, T/C",[19],1.99%
same,"viability, T/C",[20],1.2%
same,"viability, T/C",[21],1.79%
same,"viability, T/C",[22],1.5%
same,"viability, T/C",[23],1.66%
same,"viability, T/C",[24],0.72%
CCCS(=O)(=O)Nc1ccc(F)c(C(=O)c2c[nH]c3ncc(-c4ccc(Cl)cc4)cc23)c1F + COc1c(OCCCN2CCOCC2)ccc2c3n(c(=NC(=O)c4cnc(N)nc4)nc12)CCN3,IC50,second compound 0.00316 µM,5.87 µM
same,IC50,second compound 0.01 µM,5.89 µM
same,IC50,second compound 0.0316 µM,4.28 µM
same,IC50,second compound 0.1 µM,< 0.0316 µM
same,IC50,second compound 0.316 µM,< 0.0316 µM
same,IC50,second compound 1 µM,< 0.0316 µM
same,"viability, T/C",[25],99.6%
same,"viability, T/C",[26],96%
same,"viability, T/C",[27],97.8%
same,"viability, T/C",[28],108%
same,"viability, T/C",[29],86.4%
same,"viability, T/C",[30],18.6%
same,"viability, T/C",[31],85.1%
same,"viability, T/C",[32],93.7%
same,"viability, T/C",[33],93.7%
same,"viability, T/C",[34],91.4%
same,"viability, T/C",[35],86.4%
same,"viability, T/C",[36],19.1%
same,"viability, T/C",[1],72.8%
same,"viability, T/C",[2],86.7%
same,"viability, T/C",[3],86.3%
same,"viability, T/C",[4],78.6%
same,"viability, T/C",[5],64%
same,"viability, T/C",[6],11.1%
same,"viability, T/C",[7],48.2%
same,"viability, T/C",[8],43.8%
same,"viability, T/C",[9],47.1%
same,"viability, T/C",[10],56.4%
same,"viability, T/C",[11],40.7%
same,"viability, T/C",[12],7.62%
same,"viability, T/C",[13],12.5%
same,"viability, T/C",[14],13.2%
same,"viability, T/C",[15],12.3%
same,"viability, T/C",[16],13.6%
same,"viability, T/C",[17],12.4%
same,"viability, T/C",[18],1.45%
same,"viability, T/C",[19],1.35%
same,"viability, T/C",[20],1.58%
same,"viability, T/C",[21],2.26%
same,"viability, T/C",[22],1.47%
same,"viability, T/C",[23],1.69%
same,"viability, T/C",[24],0.99%
C#Cc1c(F)ccc2cc(O)cc(-c3ncc4c(N5CC6CCC(C5)N6)nc(OCC56CCCN5CC(F)C6)nc4c3F)c12 (stereo not given) + CC(Nc1ccc2c(c1)OCCn1cc(N3C(=O)OCC3C(F)F)nc1-2)C(N)=O,IC50,second compound 0.00316 µM,> 10 µM
same,IC50,second compound 0.01 µM,> 10 µM
same,IC50,second compound 0.0316 µM,> 10 µM
same,IC50,second compound 0.1 µM,> 10 µM
same,IC50,second compound 0.316 µM,> 10 µM
same,IC50,second compound 1 µM,> 10 µM
same,"viability, T/C",[25],106%
same,"viability, T/C",[26],78%
same,"viability, T/C",[27],96.6%
same,"viability, T/C",[28],92.7%
same,"viability, T/C",[29],97.4%
same,"viability, T/C",[30],99.1%
same,"viability, T/C",[31],97.5%
same,"viability, T/C",[32],98.9%
same,"viability, T/C",[33],93.4%
same,"viability, T/C",[34],96.4%
same,"viability, T/C",[35],103%
same,"viability, T/C",[36],99%
same,"viability, T/C",[1],87.3%
same,"viability, T/C",[2],108%
same,"viability, T/C",[3],80.9%
same,"viability, T/C",[4],95.5%
same,"viability, T/C",[5],97.8%
same,"viability, T/C",[6],92.9%
same,"viability, T/C",[7],78.7%
same,"viability, T/C",[8],103%
same,"viability, T/C",[9],78.1%
same,"viability, T/C",[10],92.4%
same,"viability, T/C",[11],88.8%
same,"viability, T/C",[12],71.8%
same,"viability, T/C",[13],70.8%
same,"viability, T/C",[14],89.1%
same,"viability, T/C",[15],79.5%
same,"viability, T/C",[16],79.7%
same,"viability, T/C",[17],83.5%
same,"viability, T/C",[18],61.9%
same,"viability, T/C",[19],70.2%
same,"viability, T/C",[20],56.8%
same,"viability, T/C",[21],55.9%
same,"viability, T/C",[22],59.7%
same,"viability, T/C",[23],57.2%
same,"viability, T/C",[24],54%
CCCS(=O)(=O)Nc1ccc(F)c(C(=O)c2c[nH]c3ncc(-c4ccc(Cl)cc4)cc23)c1F + CC(Nc1ccc2c(c1)OCCn1cc(N3C(=O)OCC3C(F)F)nc1-2)C(N)=O,IC50,second compound 0.00316 µM,6.95 µM
same,IC50,second compound 0.01 µM,5.96 µM
same,IC50,second compound 0.0316 µM,6.55 µM
same,IC50,second compound 0.1 µM,5.52 µM
same,IC50,second compound 0.316 µM,4.22 µM
same,IC50,second compound 1 µM,3.9 µM
same,"viability, T/C",[25],103%
same,"viability, T/C",[26],131%
same,"viability, T/C",[27],107%
same,"viability, T/C",[28],92.7%
same,"viability, T/C",[29],90.5%
same,"viability, T/C",[30],32.7%
same,"viability, T/C",[31],106%
same,"viability, T/C",[32],93.2%
same,"viability, T/C",[33],117%
same,"viability, T/C",[34],90.5%
same,"viability, T/C",[35],78.5%
same,"viability, T/C",[36],27.5%
same,"viability, T/C",[1],95.6%
same,"viability, T/C",[2],111%
same,"viability, T/C",[3],95.2%
same,"viability, T/C",[4],105%
same,"viability, T/C",[5],93%
same,"viability, T/C",[6],24.8%
same,"viability, T/C",[7],85.8%
same,"viability, T/C",[8],73.5%
same,"viability, T/C",[9],81.8%
same,"viability, T/C",[10],86.3%
same,"viability, T/C",[11],79.4%
same,"viability, T/C",[12],18.6%
same,"viability, T/C",[13],69.6%
same,"viability, T/C",[14],68.2%
same,"viability, T/C",[15],78.4%
same,"viability, T/C",[16],84.5%
same,"viability, T/C",[17],61.8%
same,"viability, T/C",[18],15.1%
same,"viability, T/C",[19],54%
same,"viability, T/C",[20],54.1%
same,"viability, T/C",[21],66.1%
same,"viability, T/C",[22],55.5%
same,"viability, T/C",[23],63.4%
same,"viability, T/C",[24],11.1%
